The nature of data set [1]: Analytical RP-HPLC retention time (used as indication of hydrophobicity). It is filed as physicochemical. Conditions: analytical reverse phase HPLC, UV chromatogram; free and CF-labelled peptides.
The nature of data set [2]: Biodistribution of 67Ga-radiolabeled peptides. The arrangement: species or system mouse. Conditions: female, CD1, mouse, in vivo, iv, 100 uCi, total radioactivity, Tissue distribution. As for the experimental part: All animal experiments were performed in compliance with national and EU legislation for good practices on laboratory animal science. The animals were housed in a temperature and humidity-controlled environment with a 12 h light/12 h dark schedule. Biodistribution of radiolabeled peptides was performed on 7 weeks old CD1 female mice.
Animals were intravenously injected into the tail vein with 100 µL of a 25 µM saline solution of the ^67Ga-peptide with a radioactivity around 100 µCi. The mice were euthanized by cervical dislocation at 2 min and 1 h after injection. The dose administered and the radioactivity in the euthanized animals was measured using a dose calibrator (Carpintec CRC-15W, Ramsey, USA). The difference between the radioactivity in the injected and the euthanized animals was assumed to be due to excretion. Brain and tissues of interest without previous perfusion were dissected, washed, and weighed, and their radioactivity was measured using a γ counter (Hidex AMG, Hidex, Turku, Finland). The uptake in the brain and tissues of interest was calculated and expressed as a percentage of injected radioactivity dose per gram of tissue (% ID/g).

Residues, ends and D or L forms follow the SMILES beside them. *: point of attachment. NODAGA = O=C(O)CN1CCN(CC(=O)O)CCN(C(CCC(=O)*)C(=O)O)CC1; CF = 5(6)-carboxyfluorescein

Regarding “CF-KWCFRVCYRGICYRRCR-amide [CF-TI, 5(6)-carboxyfluorescein-labelled TI]”, the “HPLC tR” value in data set [1] is listed as 8.11 min.
Still for that read-out and setting: with “CF-EEGRLYMRYYSPTTRRYG-amide [CF-CPP(II), 5(6)-carboxyfluorescein-labelled CPP(II)]” the figure was 7.95 min.
The same measure, in the same setting: in the case of “CF-YKEATSTFTNITYRGT-amide [CF-Peptide b3-1, 5(6)-carboxyfluorescein-labelled Peptide b3-1]” it was 8.63 min; in that of “CF-RPKPQQFFGLM-amide [CF-SPA, 5(6)-carboxyfluorescein-labelled SPA]”, 9.25 min.
On the same count and under the same terms, with “CF-KYRSGAITIGY-amide [CF-B, 5(6)-carboxyfluorescein-labelled B]” the figure was 7.62 min.
Consider “CF-KYKGAIIGNIK-amide [CF-A, 5(6)-carboxyfluorescein-labelled A]”, for which, in data set [1], the “HPLC tR” value was 7.05 min.
For orientation: tissue uptake means the share of the injected amount in each gram of the tissue. Turning to `CC(C)C[C@H](NC(=O)[C@H](Cc1c[nH]c2ccccc12)NC(=O)[C@H](Cc1ccccc1)NC(=O)[C@H](CCC(N)=O)NC(=O)[C@H](C)NC(=O)[C@H](CO)NC(=O)[C@H](CC(=O)O)NC(=O)[C@@H]1CCCN1C(=O)[C@H](CCCNC(=N)N)NC(=O)[C@H](CC(N)=O)NC(=O)CCC(C(=O)O)N1CCN(CC(=O)O)CCN(CC(=O)O)CC1)C(=O)N[C@@H](Cc1c[nH]cn1)C(=O)N[C@@H](Cc1c[nH]cn1)C(N)=O` (some centres unmarked) [67Ga-BBBpS_9, metal not drawn] ({NODAGA}-NRPDSAQFWLHH-NH2), the tissue uptake at 2 min in data set [2] (Blood) was 11.6 ± 1.5 %ID/g; in data set [2] (Bone), 3.4 ± 0.3 %ID/g; in data set [2] (Brain (brain uptake)), 0.61 ± 0.11 %ID/g; in data set [2] (Heart), 3.3 ± 0.1 %ID/g; in data set [2] (Intestine), 1.9 ± 0.2 %ID/g; in data set [2] (Kidney) it was 30 ± 3.7 %ID/g. In addition, the tissue uptake at 2 min in data set [2] (Liver) stood at 4.7 ± 0.4 %ID/g; in data set [2] (Lung), 5.4 ± 0.6 %ID/g; in data set [2] (Muscle) it was 2.6 ± 0.3 %ID/g; in data set [2] (Spleen), 2.6 ± 0.3 %ID/g; in data set [2] (Stomach) it was 1.5 ± 0.2 %ID/g. Further, the tissue uptake at 1 h stood at 0.8 ± 0.4 %ID/g in data set [2] (Blood); 0.5 ± 0.1 %ID/g in data set [2] (Bone); 0.05 ± 0.01 %ID/g in data set [2] (Brain (brain uptake)); 0.3 %ID/g in data set [2] (Heart); 0.2 %ID/g in data set [2] (Intestine); 3.1 ± 0.3 %ID/g in data set [2] (Kidney). The tissue uptake at 1 h in data set [2] (Liver) was determined as 2.6 ± 0.3 %ID/g; in data set [2] (Lung), 0.7 ± 0.1 %ID/g; in data set [2] (Muscle), 0.2 ± 0.1 %ID/g; in data set [2] (Spleen) it was 0.9 ± 0.2 %ID/g; in data set [2] (Stomach) it was 0.3 ± 0.1 %ID/g.
For the compound “CF-HIQLSPFSQSWR-amide [CF-HAP-2, 5(6)-carboxyfluorescein-labelled HAP-2]”, the “HPLC tR” value in data set [1] is on record as 9.50 min.
Still for that read-out and setting: with “CF-APWHLSSQYSRT-amide ({CF}-APWHLSSQYSRT-NH2) [CF-CTP, 5(6)-carboxyfluorescein-labelled CTP]” the figure was 8.45 min.
For the compound `CC[C@H](C)[C@H](NC(=O)[C@H](C)NC(=O)CNC(=O)[C@H](CCCCN)NC(=O)[C@H](Cc1ccc(O)cc1)NC(=O)[C@H](CCCCN)NC(=O)CCC(C(=O)O)N1CCN(CC(=O)O)CCN(CC(=O)O)CC1)C(=O)N[C@H](C(=O)NCC(=O)N[C@@H](CC(N)=O)C(=O)N[C@H](C(=O)N[C@@H](CCCCN)C(N)=O)[C@@H](C)CC)[C@@H](C)CC` (some centres unmarked) [67Ga-BBBpS_1, metal not drawn] ({NODAGA}-KYKGAIIGNIK-NH2), the tissue uptake at 2 min in data set [2] (Blood) amounted to 12.6 ± 2.1 %ID/g; in data set [2] (Bone) it was 3.4 ± 0.3 %ID/g; in data set [2] (Brain (brain uptake)) it was 0.66 ± 0.16 %ID/g; in data set [2] (Heart) it was 3.4 ± 1 %ID/g; in data set [2] (Intestine) it was 1.7 ± 0.3 %ID/g; in data set [2] (Kidney), 33.8 ± 3.8 %ID/g. The tissue uptake at 2 min in data set [2] (Liver) was determined as 4.1 ± 0.8 %ID/g; in data set [2] (Lung), 6.1 ± 0.7 %ID/g; in data set [2] (Muscle), 2.4 ± 0.2 %ID/g; in data set [2] (Spleen), 2 ± 0.2 %ID/g; in data set [2] (Stomach), 1.4 ± 0.5 %ID/g. Further, the tissue uptake at 1 h in data set [2] (Blood) turned out to be 0.5 ± 0.3 %ID/g; in data set [2] (Bone), 0.3 ± 0.1 %ID/g; in data set [2] (Brain (brain uptake)) it was 0.04 ± 0.02 %ID/g; in data set [2] (Heart), 0.3 ± 0.1 %ID/g; in data set [2] (Intestine), 0.2 ± 0.1 %ID/g; in data set [2] (Kidney), 2.4 ± 1.8 %ID/g. The tissue uptake at 1 h turned out to be 0.3 ± 0.2 %ID/g in data set [2] (Liver); 2.5 ± 0.3 %ID/g in data set [2] (Lung); 0.3 ± 0.1 %ID/g in data set [2] (Muscle); 0.2 ± 0.1 %ID/g in data set [2] (Spleen); 0.1 %ID/g in data set [2] (Stomach).
As to “CF-NRPDSAQFWLHH-amide [CF-Peptide third, 5(6)-carboxyfluorescein-labelled Peptide third]”, in data set [1], the “HPLC tR” value is on record as 8.01 min.
Take “CF-LKTLTETLKELTKTLTEL-amide [CF-KLA13, 5(6)-carboxyfluorescein-labelled KLA13]”: the “HPLC tR” value in data set [1] is 13.51 min.
Still for that read-out and setting: in the case of “CF-KKKKQPPKPKKPKTQEKKKKQPPKPKR-amide [CF-P1746c27, 5(6)-carboxyfluorescein-labelled P1746c27]” it was 4.23 min.
Same read-out and setting: in the case of “CF-YDEEGGGE-amide [CF-YDEGE, 5(6)-carboxyfluorescein-labelled YDEGE]” it was 7.89 min.
Consider `CC[C@H](C)[C@H](NC(=O)[C@H](C)NC(=O)CNC(=O)[C@H](CO)NC(=O)[C@H](CCCNC(=N)N)NC(=O)[C@H](Cc1ccc(O)cc1)NC(=O)[C@H](CCCCN)NC(=O)CCC(C(=O)O)N1CCN(CC(=O)O)CCN(CC(=O)O)CC1)C(=O)N[C@H](C(=O)N[C@H](C(=O)NCC(=O)N[C@@H](Cc1ccc(O)cc1)C(N)=O)[C@@H](C)CC)[C@@H](C)O` (some centres unmarked) [67Ga-BBBpS_2, metal not drawn] ({NODAGA}-KYRSGAITIGY-NH2), for which the tissue uptake at 2 min was 13.4 ± 3.8 %ID/g in data set [2] (Blood); 3.1 ± 0.1 %ID/g in data set [2] (Bone); 0.52 ± 0.23 %ID/g in data set [2] (Brain (brain uptake)); 3.1 ± 0.7 %ID/g in data set [2] (Heart); 1.5 ± 0.2 %ID/g in data set [2] (Intestine); 18.1 ± 2.1 %ID/g in data set [2] (Kidney). Also, the tissue uptake at 2 min in data set [2] (Liver) is 3.5 ± 1.2 %ID/g; in data set [2] (Lung), 6 ± 1.2 %ID/g; in data set [2] (Muscle), 2 ± 0.4 %ID/g; in data set [2] (Spleen), 1.9 ± 0.6 %ID/g; in data set [2] (Stomach) it was 1 ± 0.1 %ID/g. Also, the tissue uptake at 1 h amounted to 1.4 ± 0.9 %ID/g in data set [2] (Blood); 0.8 ± 0.5 %ID/g in data set [2] (Bone); 0.09 ± 0.03 %ID/g in data set [2] (Brain (brain uptake)); 0.8 ± 0.1 %ID/g in data set [2] (Heart); 0.4 %ID/g in data set [2] (Intestine); 1.4 ± 0.6 %ID/g in data set [2] (Kidney). The tissue uptake at 1 h in data set [2] (Liver) came to 0.6 ± 0.2 %ID/g; in data set [2] (Lung) it was 1.7 ± 0.4 %ID/g; in data set [2] (Muscle) it was 0.7 ± 0.1 %ID/g; in data set [2] (Spleen) it was 0.5 ± 0.2 %ID/g; in data set [2] (Stomach), 0.2 ± 0.1 %ID/g.
For “CF-YTQDFNKFHTFPQTAIGVGAP-amide [CF-hCR(12–32), 5(6)-carboxyfluorescein-labelled hCR(12–32)]”, the “HPLC tR” value in data set [1] is 8.79 min.
`CC[C@H](C)[C@H](NC(=O)[C@H](Cc1c[nH]cn1)NC(=O)CCC(C(=O)O)N1CCN(CC(=O)O)CCN(CC(=O)O)CC1)C(=O)N[C@@H](CCC(N)=O)C(=O)N[C@@H](CC(C)C)C(=O)N[C@@H](CO)C(=O)N1CCC[C@H]1C(=O)N[C@@H](Cc1ccccc1)C(=O)N[C@@H](CO)C(=O)N[C@@H](CCC(N)=O)C(=O)N[C@@H](CO)C(=O)N[C@@H](Cc1c[nH]c2ccccc12)C(=O)N[C@@H](CCCNC(=N)N)C(N)=O` (some centres unmarked) [67Ga-BBBpS_5, metal not drawn] ({NODAGA}-HIQLSPFSQSWR-NH2): the tissue uptake at 2 min in data set [2] (Blood) stood at 10.7 ± 2.1 %ID/g; in data set [2] (Bone), 3.8 ± 0.5 %ID/g; in data set [2] (Brain (brain uptake)), 0.74 ± 0.01 %ID/g; in data set [2] (Heart), 3.8 ± 0.8 %ID/g; in data set [2] (Intestine), 2.2 ± 0.2 %ID/g; in data set [2] (Kidney), 22 ± 3.6 %ID/g. The tissue uptake at 2 min stood at 5.2 ± 1.1 %ID/g in data set [2] (Liver); 7.8 ± 2.8 %ID/g in data set [2] (Lung); 3.1 ± 0.8 %ID/g in data set [2] (Muscle); 2.2 ± 0.1 %ID/g in data set [2] (Spleen); 2.6 %ID/g in data set [2] (Stomach). Further, the tissue uptake at 1 h came out at 1.2 ± 0.3 %ID/g in data set [2] (Blood); 0.6 ± 0.4 %ID/g in data set [2] (Bone); 0.05 ± 0.01 %ID/g in data set [2] (Brain (brain uptake)); 0.5 %ID/g in data set [2] (Heart); 0.4 ± 0.2 %ID/g in data set [2] (Intestine); 1.1 ± 0.6 %ID/g in data set [2] (Kidney). Further, the tissue uptake at 1 h in data set [2] (Liver) was found to be 1 ± 0.4 %ID/g; in data set [2] (Lung), 1.2 ± 0.2 %ID/g; in data set [2] (Muscle), 0.5 ± 0.2 %ID/g; in data set [2] (Spleen), 0.3 ± 0.1 %ID/g; in data set [2] (Stomach), 0.3 ± 0.4 %ID/g.

These data come from paper PMC11131246, “Molecular determinants for brain targeting by peptides: a meta-analysis approach with experimental validation” (Fluids and Barriers of the CNS, 2024).
